Results as given in patent publication US20250154152A1, “INHIBITORS OF NAEGLERIA FOWLERI” (Wisconsin Alumni Research Foundation, priority 2023, published 2025).

These compounds were tested on N. fowleri strain Nf69 (ATCC 30215) trophozoites (assay: Determination of EC50 values against Naegleria fowleri (growth inhibition, CellTiter Glo, 48 h)). Conditions: ATCC30215, N. fowleri Nf69 trophozoites, 48 h culture, 37° C., CellTiter Glo luminescence, read-out: EC50 uM against N. fowleri.
Format: cell-based
Description: N. fowleri strain Nf69 (ATCC 30215) trophozoites were cultured axenically. Amoeba were seeded at […] in 100 μL of the indicated medium in white TC-treated 96-well plates (Thermo Scientific Nunc Microwell 136101). Cells were seeded into Nelson's Complete Media (NCM, 0.17% liver infusion broth (BD Difco, Franklin Lakes, NJ), 0.17% glucose, 0.012% sodium chloride, 0.0136% potassium phosphate monobasic, 0.0142% sodium phosphate dibasic, 0.0004% calcium chloride, 0.0002% magnesium sulfate, 10% heat-inactivated fetal bovine serum (FBS), 1% penicillin-streptomycin) at 37° C. in 96-well tissue culture plates. Vehicle or compound at concentrations initially ranging from 20 to 0.375 μM were added to cells, followed by culture for 48 h (37° C., 5% CO2). Plates were equilibrated to rt for 15 min and CellTiter Glo reagent was added followed by orbital shaking for 2 min. After an additional incubation (rt, 10 min), luminescence was scored on a BioTek Synergy H1 microplate reader. Luminescence values were used to calculate percent cell growth inhibition (based on controls) for each concentration of compound tested. Averages of triplicates were calculated and fit to dose-response curves for the determination of EC50 values, using Prism 9.0 (GraphPad Software, San Diego, CA). […] Other controls included media alone, cells and media, and vehicle and media. For very potent compounds, concentration of reagent in the dose-response assays were reduced to provide an appropriate range for EC50 value resolution.
Compounds of the present technology were tested for growth inhibition of N. fowleri per General Procedure 13, above.

Row | SMILES | EC50 [µM]
1 | O=c1c2cc(Cl)c(Cl)cc2nc2n1CC[C@@H]1[C@@H]2CCCN1Cc1ccc(Cl)cc1 (racemic) [Compound 7t, (±)-(4aR,13bS)-10,11-dichloro-4-(4-chlorobenzyl)-1,2,3,4,4a,5,6,13b-octahydro-8H-[1,6]naphthyridino[5,6-b]quinazolin-8-one] | > 10
2 | O=c1c2cc(Cl)c(Cl)cc2nc2n1CC[C@@H]1[C@@H]2CCCN1Cc1ccc(C(F)(F)F)cc1 (racemic) [Compound 7u, (±)-(4aR,13bS)-10,11-dichloro-4-(4-(trifluoromethyl)benzyl)-1,2,3,4,4a,5,6,13b-octahydro-8H-[1,6]naphthyridino[5,6-b]quinazolin-8-one] | > 10
3 | O=c1c2cc(Cl)c(Cl)cc2nc2n1CC[C@@H]1[C@@H]2CCCN1Cc1ccc(Cl)cc1Cl (racemic) [Compound 7v, (±)-(4aR,13bS)-10,11-dichloro-4-(2,4-dichlorobenzyl)-1,2,3,4,4a,5,6,13b-octahydro-8H-[1,6]naphthyridino[5,6-b]quinazolin-8-one] | > 10
4 | CN1CCC[C@H]2c3nc4ccccc4c(=O)n3CC[C@H]21 (racemic) [cis-5a, (±)-(4aR,13bR)-4-methyl-1,2,3,4,4a,5,6,13b-octahydro-8H-[1,6]naphthyridino[5,6-b]quinazolin-8-one] | > 10
5 | Cc1cccc2nc3n(c(=O)c12)CC[C@@H]1[C@H]3CCCN1C (racemic) [cis-5b, (±)-(4aR,13bR)-4,9-dimethyl-1,2,3,4,4a,5,6,13b-octahydro-8H-[1,6]naphthyridino[5,6-b]quinazolin-8-one] | > 10
6 | CN1CCC[C@H]2c3nc4cccc(Cl)c4c(=O)n3CC[C@H]21 (racemic) [cis-5c, (±)-(4aR,13bR)-9-chloro-4-methyl-1,2,3,4,4a,5,6,13b-octahydro-8H-[1,6]naphthyridino[5,6-b]quinazolin-8-one] | > 10
7 | CN1CC[C@H]2c3nc4ccccc4c(=O)n3CC[C@H]21 (racemic) [cis-5cc, (±)-(3aR,12bR)-3-methyl-2,3,3a,4,5,12b-hexahydropyrrolo[3′,2′:3,4]pyrido[2,1-b]quinazolin-7(1H)-one] | > 10
8 | CN1CCC[C@H]2c3nc4ccc(Cl)cc4c(=O)n3CC[C@H]21 (racemic) [cis-5d, (±)-(4aR,13bR)-10-chloro-4-methyl-1,2,3,4,4a,5,6,13b-octahydro-8H-[1,6]naphthyridino[5,6-b]quinazolin-8-one] | 1 to 10
9 | COc1cccc2c(=O)n3c(nc12)[C@@H]1CCN(C)[C@@H]1CC3 (racemic) [cis-5dd, (±)-(3aR,12bR)-11-methoxy-3-methyl-2,3,3a,4,5,12b-hexahydropyrrolo[3′,2′:3,4]pyrido[2,1-b]quinazolin-7(1H)-one] | > 10
10 | CN1CCC[C@H]2c3nc4ccc(Br)cc4c(=O)n3CC[C@H]21 (racemic) [cis-5e, (±)-(4aR,13bR)-10-bromo-4-methyl-1,2,3,4,4a,5,6,13b-octahydro-8H-[1,6]naphthyridino[5,6-b]quinazolin-8-one] | 0.1 to 1
11 | CN1CC[C@H]2c3nc4cc(F)c(F)cc4c(=O)n3CC[C@H]21 (racemic) [cis-5ee, (±)-(3aR,12bR)-9,10-difluoro-3-methyl-2,3,3a,4,5,12b-hexahydropyrrolo[3′,2′:3,4]pyrido[2,1-b]quinazolin-7(1H)-one] | > 10
12 | CN1CCC[C@H]2c3nc4ccc(F)cc4c(=O)n3CC[C@H]21 (racemic) [cis-5f, (±)-(4aR,13bR)-10-fluoro-4-methyl-1,2,3,4,4a,5,6,13b-octahydro-8H-[1,6]naphthyridino[5,6-b]quinazolin-8-one] | > 10
13 | O=c1c2ccccc2nc2n1CC[C@@H]1[C@H]2CCN1Cc1ccccc1 (racemic) [cis-5ff, (±)-(3aR,12bR)-3-benzyl-2,3,3a,4,5,12b-hexahydropyrrolo[3′,2′:3,4]pyrido[2,1-b]quinazolin-7(1H)-one] | > 10
14 | COc1ccc2nc3n(c(=O)c2c1)CC[C@@H]1[C@H]3CCCN1C (racemic) [cis-5g, (±)-(4aR,13bR)-10-methoxy-4-methyl-1,2,3,4,4a,5,6,13b-octahydro-8H-[1,6]naphthyridino[5,6-b]quinazolin-8-one] | > 10
